Test results reported in the NIST ThermoML archive (doi:10.1021/je900915p).
± gives the expanded uncertainty stated by the source.

How the values were obtained:
[1] = 298.15 K, 101.33 kPa, Liquid; for viscosity: Capillary tube (Ostwald / Ubbelohde) method
[2] = xn = mol fraction of the nth substance listed; details: 298.15 K, 101 kPa, Liquid; for viscosity: Capillary tube (Ostwald / Ubbelohde) method
[3] = mn = molality of the nth substance listed, in mol/kg; details: 298.15 K, 101 kPa, Liquid; for speed of sound: Pulse-echo method

CC#N [acetonitrile]
[1]
Details | mass density [kg/m3] | viscosity [mPa·s]
– | 776.85 ± 0.66 | 0.341 ± 0.004

N#CCCCCC#N [hexanedinitrile] + CC#N
[2]
Details | mass density [kg/m3] | viscosity [mPa·s]
x2 = 0.5 | 892.51 ± 0.34 | 1.61 ± 0.012
x2 = 0.6 | 880 ± 0.36 | 1.41 ± 0.01
x2 = 0.7 | 870 ± 0.37 | 1.057 ± 0.008
x2 = 0.8 | 848.59 ± 0.4 | 0.684 ± 0.005
x2 = 0.9 | 818.58 ± 0.44 | 0.506 ± 0.004

N#CCCCCC#N [hexanedinitrile]
[1]
Details | mass density [kg/m3] | viscosity [mPa·s]
– | 975.26 ± 0.28 | 5.99 ± 0.06

O=[N+]([O-])[O-].[Ag+] [silver nitrate] + CC#N
[3]
Details | mass density [kg/m3] | speed of sound [m/s]
m1 = 0.0283 | 785.04 ± 0.5 | 1272 ± 0.97
m1 = 0.04474 | 789.86 ± 0.49 | 1273.5 ± 0.98
m1 = 0.06947 | 797.11 ± 0.48 | 1275.3 ± 0.99
m1 = 0.09727 | 805.38 ± 0.48 | 1277.7 ± 1
m1 = 0.1285 | 814.46 ± 0.47 | 1279.5 ± 1

CCCC[N+](CCCC)(CCCC)CCCC.O=[N+]([O-])[O-] [tetrabutylammonium nitrate] + CC#N
[3]
Details | mass density [kg/m3] | speed of sound [m/s]
m1 = 0.02174 | 781.56 ± 0.5 | 1272.7 ± 0.97
m1 = 0.04144 | 785.96 ± 0.5 | 1273.7 ± 0.99
m1 = 0.06482 | 791.21 ± 0.5 | 1275.2 ± 1
m1 = 0.08753 | 796.37 ± 0.49 | 1276.6 ± 1
m1 = 0.1139 | 802.45 ± 0.49 | 1279.3 ± 1.1

Cc1ccc2ccc3ccc(C)nc3c2n1.Cc1ccc2ccc3ccc(C)nc3c2n1.[Cu+2].[O-][Cl+3]([O-])([O-])[O-].[O-][Cl+3]([O-])([O-])[O-] [bis-(2,9-dimethyl-1,10-phenanthroline) copper perchlorate] + CC#N
[3]
Details | mass density [kg/m3] | speed of sound [m/s]
m1 = 0.02474 | 792.91 ± 0.51 | 1273.2 ± 0.99
m1 = 0.03841 | 801.84 ± 0.5 | 1274.5 ± 1
m1 = 0.05937 | 815.69 ± 0.49 | 1275.9 ± 1.1
m1 = 0.08169 | 830.27 ± 0.48 | 1277.3 ± 1.1
m1 = 0.1218 | 857.14 ± 0.46 | 1279.7 ± 1.1

CC#N.CC#N.CC#N.CC#N.[Cu+].[O-][Cl+3]([O-])([O-])[O-] [tetraacetonitrile copper perchlorate] + CC#N
[3]
Details | mass density [kg/m3] | speed of sound [m/s]
m1 = 0.02538 | 787.25 ± 0.5 | 1272.1 ± 0.98
m1 = 0.03962 | 793.19 ± 0.49 | 1273.7 ± 0.99
m1 = 0.0589 | 801.28 ± 0.49 | 1275 ± 1
m1 = 0.08537 | 812.53 ± 0.48 | 1276.7 ± 1
m1 = 0.1254 | 828.76 ± 0.46 | 1278.5 ± 1.1

CCCC[N+](CCCC)(CCCC)CCCC.[O-][Cl+3]([O-])([O-])[O-] [tetrabutylammonium perchlorate] + CC#N
[3]
Details | mass density [kg/m3] | speed of sound [m/s]
m1 = 0.02616 | 783.32 ± 0.5 | 1272.4 ± 0.98
m1 = 0.04068 | 786.97 ± 0.5 | 1273.2 ± 0.99
m1 = 0.06312 | 792.62 ± 0.5 | 1275.2 ± 1
m1 = 0.09762 | 801.31 ± 0.49 | 1276.8 ± 1
m1 = 0.1502 | 814.61 ± 0.49 | 1278.2 ± 1.1

CC#N [acetonitrile] + N#CCCCCC#N
[2], x1 = 1
Details | mass density [kg/m3] | viscosity [mPa·s]
– | 776.85 ± 0.5 | 0.341 ± 0.003
